pIC50: −log10 of the molar value.
The molecules below were run against T1, human Arginine Vasopressin Receptor 1a (AVPR1a) (Homo sapiens, UniProt P37288) (assay: Vasopressin V1a receptor antagonist assay (FLIPR calcium, CHO-AVPR1a cells)).
T1 construct: expressed in transfected cells; host or cells: CHO (CHO-AVPR1a, kept under G418 selection)
Format: cell-based
Protocol: The purpose of this assay was to determine the inhibitory effect of synthesized compounds on the Vasopressin V1a receptor. The assay was performed in Chinese Hamster Ovary (CHO) cells expressing the human Arginine Vasopressin Receptor 1a (AVPR1a). Arginine Vasopressin (AVP) evokes an increase in intracellular calcium in CHO-AVPR1a cells which is measured in a fluorescence assay on the FLIPR^TETRA using calcium sensitive dyes. Test compounds were assessed for their ability to affect the magnitude of the response to AVP, with antagonists showing a concentration-dependent reduction in the AVP-mediated fluorescence. Compounds were tested in duplicate in a 10-point, 1:3 dilution series starting at a nominal concentration of 3 μM in the assay.
CHO-AVPR1a cells were maintained in routine culture in T175 Flasks at 37° C., 5% CO2. The growth medium consists of Ham's F12 media supplemented with 10% v/v fetal bovine serum, 1× non-essential amino acids, and 0.4 mg/ml Geneticin G418.
On day one, cells were harvested from T175 flasks when they are 80-90% confluent by first washing the cell monolayer with PBS and then dissociated using trypsin 0.05%/EDTA (3 mL for a T175 Flask). The flasks were incubated at room temperature until the cells detached. To the cell suspension, 10 ml of growth media was added and the cell density determined using the Vi-Cell automated cell counter. The cells were spun at 1000 rpm for 3 minutes, then the supernatant was carefully removed and discarded. The cell pellet was re-suspended at 6.0e^5 cells/ml in growth media. 25 μL of cells in growth media was dispensed into each well (15,000 cells per well) of a poly-D-lysine coated black, clear bottomed, 384-well plate. The plates were incubated at 37° C., 5% CO2 overnight.
At the start of each assay day, the potency of AVP was assessed and an EC80 concentration determined for subsequent compound profiling. Assays were performed using a two-step addition protocol on the FLIPR^TETRA; first addition of 5 μl of control or test compound at 10× final in assay buffer with 15 min incubation at 37° C., 5% CO2 followed by 10 μl of AVP at 6× final concentration in assay buffer. Changes in fluorescence were monitored for 3 min after both additions on the FLIPR^TETRA using 470-495 nm excitation and 515-575 nm emission wavelengths. The assay buffer consisted of HBSS (+Ca/+Mg) supplemented with 20 mM HEPES, and for the preparation of the AVP agonist only, 0.1% w/v bovine serum albumin. The assay was initiated by the removal of growth media from the cells and replacement with 45 μl of Calcium-6 dye (Molecular Devices) prepared at 1× in assay buffer. Cells were loaded with dye for 60-90 min at 37° C., 5% CO2 before initiation of the FLIPR^TETRA protocol. […] For compound profiling, test compounds were first serially diluted in DMSO (10-point curve, 1:3 dilutions) then diluted 33.3-fold in assay buffer prior to addition to the dye loaded cells on the FLIPR^TETRA. At the end of the incubation period, 10 μl of AVP in assay buffer containing 0.1% BSA was added at the previously determined EC80 concentration.
In-plate controls for the assay included balovaptan and PF-184563 concentration-response curves as reference V1a antagonists, and an AVP concentration-response curve to confirm the reproducibility of the EC80 used for the compound challenge.

T1 sequence (P37288 whole entry): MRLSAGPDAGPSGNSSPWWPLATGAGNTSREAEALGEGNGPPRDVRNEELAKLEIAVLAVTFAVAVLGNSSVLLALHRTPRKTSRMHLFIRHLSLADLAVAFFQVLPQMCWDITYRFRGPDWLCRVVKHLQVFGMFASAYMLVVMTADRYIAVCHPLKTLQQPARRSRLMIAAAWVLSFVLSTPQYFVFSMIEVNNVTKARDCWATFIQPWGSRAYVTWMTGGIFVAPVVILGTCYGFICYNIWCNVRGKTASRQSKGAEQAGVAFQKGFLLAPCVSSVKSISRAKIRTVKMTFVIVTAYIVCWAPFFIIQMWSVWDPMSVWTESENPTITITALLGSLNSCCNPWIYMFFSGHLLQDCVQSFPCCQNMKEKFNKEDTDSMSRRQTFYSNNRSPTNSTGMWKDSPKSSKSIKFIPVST

SMILES	pIC50
CCC1COc2cc(Cl)ccc2N1C(=O)N1CC2(C1)CN(c1ccc(F)cn1)C2 (single isomer, unassigned) [1-55-A]	6.00 to 6.30
CC1COc2cc(Cl)ccc2N1C(=O)N1CC2(C1)CN(c1cnccn1)C2 (single isomer, unassigned) [1-58-A]	≤ 6.00
COc1ccc2c(c1)OCC(C)N2C(=O)N1CC2(C1)CN(c1ccc(F)cn1)C2 (single isomer, unassigned) [1-59-A]	≤ 6.00
CC1COc2cc(Cl)ccc2N1C(=O)N1CC2(C1)CN(c1ccccn1)C2 (single isomer, unassigned) [1-60-A]	6.00 to 6.30
CC1COc2cc(F)ccc2N1C(=O)N1CC2(C1)CN(c1cccnn1)C2 (single isomer, unassigned) [1-62-A]	≤ 6.00
CC1COc2cc(F)ccc2N1C(=O)N1CC2(C1)CN(c1cccnn1)C2 (single isomer, unassigned) [1-62-B]	> 7.00
CC1COc2cc(F)ccc2N1C(=O)N1CC2(C1)CN(c1cnccn1)C2 (single isomer, unassigned) [1-65-A]	≤ 6.00
CC1COc2cc(F)ccc2N1C(=O)N1CC2(C1)CN(c1ccccn1)C2 (single isomer, unassigned) [1-66-A]	≤ 6.00
CC1COc2cc(F)ccc2N1C(=O)N1CC2(C1)CN(c1ncccc1F)C2 (single isomer, unassigned) [1-67-B]	≤ 6.00
CC1COc2cc(Cl)ccc2N1C(=O)N1CC2(C1)CN(c1ncccn1)C2 (single isomer, unassigned) [1-83-A]	6.30 to 7.00
CC1COc2cc(F)ccc2N1C(=O)N1CC2(C1)CN(c1noc3ccccc13)C2 (single isomer, unassigned) [4-3-A]	6.30 to 7.00
CC1CN(C(=O)N2CC3(C2)CN(c2ccc(F)cn2)C3)c2ccc(Cl)cc2O1 (single isomer, unassigned) [9-3-B]	> 7.00
CC1CN(C(=O)N2CC3(C2)CN(c2ccc(F)cn2)C3)c2ccc(F)cc2O1 (single isomer, unassigned) [9-4-A]	6.30 to 7.00
O=C(N1CC2(C1)CN(c1ncccc1F)C2)N1CCC(O)c2cc(Cl)ccc21 (single isomer, unassigned) [13-4-A]	> 7.00
O=C(N1CC2(C1)CN(c1ccc(F)cn1)C2)N1CCC(O)c2c1ccc(Cl)c2F (single isomer, unassigned) [13-5-A]	> 7.00
O=C(N1CC2(C1)CN(c1ccc(F)cn1)C2)N1CCC(O)c2c1ccc(Cl)c2F (single isomer, unassigned) [13-5-B]	> 7.00
CC1COc2cc(Cl)ccc2N1C(=O)N1CC2(C1)CN(c1ncc(F)cn1)C2 (single isomer, unassigned) [18-2-A]	> 7.00
CC1COc2cc(Cl)ccc2N1C(=O)N1CC2(C1)CN(c1noc3cccnc13)C2 (single isomer, unassigned) [18-3-A]	≤ 6.00
CC1COc2cc(F)ccc2N1C(=O)N1CC2(C1)CN(c1ncc(F)cn1)C2 (single isomer, unassigned) [18-4-A]	≤ 6.00

SMILES	pIC50
CCc1ccnc(N2CC3(CN(C(=O)N4c5ccc(Cl)cc5OCC4C)C3)C2)n1 (single isomer, unassigned) [18-5-A]	≤ 6.00
CCc1ccnc(N2CC3(CN(C(=O)N4c5ccc(Cl)cc5OCC4C)C3)C2)n1 (single isomer, unassigned) [18-5-B]	> 7.00
CC1COc2cc(F)c(F)cc2N1C(=O)N1CC2(C1)CN(c1ncccn1)C2 (single isomer, unassigned) [19-1-A]	≤ 6.00
CC1COc2cc(Cl)c(F)cc2N1C(=O)N1CC2(C1)CN(c1ncccn1)C2 (single isomer, unassigned) [19-2-A]	6.30 to 7.00
CC1COc2cc(F)c(F)cc2N1C(=O)N1CC2(C1)CN(c1ccc(F)cn1)C2 (single isomer, unassigned) [19-5-A]	6.30 to 7.00
CC1COc2cc(Cl)ccc2N1C(=O)N1CC2(C1)CN(c1cccnc1)C2 (single isomer, unassigned) [20-1-A]	≤ 6.00
CC1COc2cc(F)ccc2N1C(=O)N1CC2(C1)CN(c1cc(C#N)ccn1)C2 (single isomer, unassigned) [20-3-A]	≤ 6.00
Cc1ccnc(N2CC3(CN(C(=O)N4c5ccc(F)cc5OCC4C)C3)C2)c1 (single isomer, unassigned) [20-4-A]	≤ 6.00
Cc1cnc(N2CC3(CN(C(=O)N4c5ccc(Cl)cc5OCC4C)C3)C2)cn1 (single isomer, unassigned) [20-5-A]	> 7.00
COc1ccnc(N2CC3(CN(C(=O)N4c5ccc(Cl)cc5OCC4C)C3)C2)c1 (single isomer, unassigned) [20-8-A]	6.30 to 7.00
COc1ccnc(N2CC3(CN(C(=O)N4c5ccc(Cl)cc5OCC4C)C3)C2)n1 (single isomer, unassigned) [20-9-A]	≤ 6.00
Cc1nccnc1N1CC2(CN(C(=O)N3c4ccc(Cl)cc4OCC3C)C2)C1 (single isomer, unassigned) [20-10-B]	≤ 6.00
Cc1ccnc(N2CC3(CN(C(=O)N4c5ccc(Cl)cc5OCC4C)C3)C2)c1 (single isomer, unassigned) [20-11-A]	6.00 to 6.30
Cc1ccnc(N2CC3(CN(C(=O)N4c5ccc(Cl)cc5OCC4C)C3)C2)c1 (single isomer, unassigned) [20-11-B]	> 7.00
Cc1ccnc(N2CC3(CN(C(=O)N4c5ccc(Cl)cc5OCC4C)C3)C2)n1 (single isomer, unassigned) [20-12-A]	≤ 6.00
CC1COc2cc(Cl)ccc2N1C(=O)N1CC2(C1)CN(c1cc(=O)n(C)cn1)C2 (single isomer, unassigned) [20-14-A]	≤ 6.00
CC1COc2cc(Cl)ccc2N1C(=O)N1CC2(C1)CN(c1nn(C)c3ncccc13)C2 (single isomer, unassigned) [20-15-A]	6.30 to 7.00
CC1COc2cc(Cl)ccc2N1C(=O)N1CC2(C1)CN(c1nccc(C#N)n1)C2 (single isomer, unassigned) [20-16-A]	≤ 6.00
CC1COc2cc(Cl)ccc2N1C(=O)N1CC2(C1)CN(c1nccc(C#N)n1)C2 (single isomer, unassigned) [20-16-B]	> 7.00

SMILES	pIC50
COc1cccc(N2CC3(CN(C(=O)N4CCOc5cc(Cl)ccc54)C3)C2)n1 [1-2]	> 7.00
COc1cccnc1N1CC2(CN(C(=O)N3CCOc4cc(Cl)ccc43)C2)C1 [1-6]	> 7.00
O=C(N1CC2(C1)CN(c1cncc(F)c1)C2)N1CCOc2cc(Cl)ccc21 [1-7]	6.30 to 7.00
COc1ncccc1N1CC2(CN(C(=O)N3CCOc4cc(Cl)ccc43)C2)C1 [1-8]	6.30 to 7.00
Cc1ncccc1N1CC2(CN(C(=O)N3CCOc4cc(Cl)ccc43)C2)C1 [1-9]	6.00 to 6.30
Cn1ccc(N2CC3(CN(C(=O)N4CCOc5cc(Cl)ccc54)C3)C2)n1 [1-10]	6.30 to 7.00
Cn1cc(N2CC3(CN(C(=O)N4CCOc5cc(Cl)ccc54)C3)C2)cn1 [1-11]	≤ 6.00
O=C(N1CC2(C1)CN(c1ccc(OC(F)F)cn1)C2)N1CCOc2cc(Cl)ccc21 [1-12]	≤ 6.00
Cc1ccc(N2CC3(CN(C(=O)N4CCOc5cc(Cl)ccc54)C3)C2)nc1 [1-13]	> 7.00
N#Cc1ccc(N2CC3(CN(C(=O)N4CCOc5cc(Cl)ccc54)C3)C2)nc1 [1-16]	6.30 to 7.00
O=C(N1CC2(C1)CN(c1cncnc1)C2)N1CCOc2cc(Cl)ccc21 [1-17]	6.30 to 7.00
O=C(N1CC2(C1)CN(c1cnc(Br)cn1)C2)N1CCOc2cc(Cl)ccc21 [1-19]	> 7.00
Cc1nccnc1N1CC2(CN(C(=O)N3CCOc4cc(Cl)ccc43)C2)C1 [1-21]	> 7.00
COc1cnc(N2CC3(CN(C(=O)N4CCOc5cc(Cl)ccc54)C3)C2)cn1 [1-23]	> 7.00
N#Cc1cnc(N2CC3(CN(C(=O)N4CCOc5cc(Cl)ccc54)C3)C2)cn1 [1-24]	6.00 to 6.30
O=C(N1CC2(C1)CN(c1ccnnc1)C2)N1CCOc2cc(Cl)ccc21 [1-25]	≤ 6.00
Cc1ccc(N2CC3(CN(C(=O)N4CCOc5cc(Cl)ccc54)C3)C2)nn1 [1-26]	6.30 to 7.00
COc1ccc(N2CC3(CN(C(=O)N4CCOc5cc(Cl)ccc54)C3)C2)nn1 [1-27]	6.30 to 7.00
CN1Cc2cnc(N3CC4(CN(C(=O)N5CCOc6cc(Cl)ccc65)C4)C3)nc2C1 [1-28]	≤ 6.00

Source: patent US12152038B2, “Vasopressin receptor antagonists and products and methods related thereto” (Neumora Therapeutics, Inc., priority 2017, dated 2024)
